# Test results: patent US10227331B2 (priority 2015, dated 2019)
# Columns and labels:
# [1] = system: Klebsiella pneumoniae expressing VIM-1 (IHMA599644); format: cell-based; details: with imipenem 1 μg/ml; 95% inhibition of bacterial growth
# Method in brief: (§1)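 Restoration of imipenem susceptibility (1 μg/ml imipenem) was judged by absorbance after 22–24 h at 35° C. Test compound was added to bacteria suspended 1:100 in 1.1× CAMHB from overnight blood-agar cultures.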
# [2] = system: Serratia marcescens expressing IMP-1 (CL5741); format: cell-based; details: with imipenem 1 μg/ml; 95% inhibition of bacterial growth
# Method in brief: as §1
# [3] = system: Escherichia coli expressing NDM-1 (CLB30005, CLB30016); format: cell-based; details: with imipenem 1 μg/ml; 95% inhibition of bacterial growth
# Method in brief: as §1
# [4] = system: P. aeruginosa expressing IMP-1, efflux+ (MB9798); format: cell-based, Pseudomonas aeruginosa; details: for P. aeruginosa expressing IMP-1, efflux+ (MB9798) MITC95: imipenem at 2 μg/mL, in the presence of a class A, C, D serine β-lactamase inhibitor closely related to relebactam; for Efflux ratio: ratio MITC95 PA_9798/MITC95 PA_9799
# From the text: (§2) The strain background is Pseudomonas aeruginosa PAO1.
# [5] = biological target: VIM-1 (Pseudomonas aeruginosa (strain ATCC 15692 / DSM 22644 / CIP 104116 / JCM 14847 / LMG 12228 / 1C / PRS 101 / PAO1), UniProt A0A0F7KYQ8); assay: biochemical; details: CCF2-FA substrate, 2 hours at 25° C
# Method in brief: (§3)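 Semi-log dose-response curves, fitted with a 4-parameter model, gave IC50s. The underlying signal was CCF2-FA fluorescence following 2 hours at 25° C with enzyme, substrate and inhibitor combined.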
# [6] = system: P. aeruginosa expressing IMP-1, efflux− (MB9799); assay: Efflux: concentration of MBL inhibitor which restores susceptibility to imipenem; format: cell-based, Pseudomonas aeruginosa; details: imipenem at 2 μg/mL, in the presence of a class A, C, D serine β-lactamase inhibitor closely related to relebactam
# From the text: as §2
# [7] = biological target: NDM-1 (Klebsiella pneumoniae, UniProt C7C422); assay: biochemical; format: biochemical; details: CCF2-FA substrate, 2 hours at 25° C; read-out: NDM-1 IC50
# Method in brief: as §3
# [8] = biological target: IMP-1 (Serratia marcescens, UniProt P52699); assay: biochemical; format: biochemical; details: CCF2-FA substrate, 2 hours at 25° C; read-out: IMP-1 IC50
# Method in brief: as §3
# Chain of IMP-1 (P52699 whole entry, looked up, species assumed): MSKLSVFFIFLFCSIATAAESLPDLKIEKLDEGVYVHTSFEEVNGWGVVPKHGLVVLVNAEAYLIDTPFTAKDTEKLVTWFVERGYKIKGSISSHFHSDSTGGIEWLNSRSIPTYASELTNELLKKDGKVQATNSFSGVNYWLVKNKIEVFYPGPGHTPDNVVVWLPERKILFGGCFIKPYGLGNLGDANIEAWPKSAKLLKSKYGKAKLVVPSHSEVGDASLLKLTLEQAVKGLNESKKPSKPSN
# Chain of NDM-1 (C7C422 whole entry, looked up, species assumed): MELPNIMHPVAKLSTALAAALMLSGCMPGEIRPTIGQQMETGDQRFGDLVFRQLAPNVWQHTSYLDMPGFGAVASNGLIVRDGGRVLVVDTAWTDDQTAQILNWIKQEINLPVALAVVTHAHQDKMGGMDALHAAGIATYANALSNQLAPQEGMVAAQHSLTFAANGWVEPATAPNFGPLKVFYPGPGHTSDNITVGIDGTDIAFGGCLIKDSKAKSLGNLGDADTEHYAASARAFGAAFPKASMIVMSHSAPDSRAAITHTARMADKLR
Structure (SMILES),Klebsiella pneumoniae expressing VIM-1 (IHMA599644) MITC95 [1],Serratia marcescens expressing IMP-1 (CL5741) MITC95 [2],Escherichia coli expressing NDM-1 (CLB30016) MITC95 [3],"P. aeruginosa expressing IMP-1, efflux+ (MB9798) MITC95 [4]",Efflux ratio [4],IC50 [5],"P. aeruginosa expressing IMP-1, efflux− (MB9799) MITC95 [6]",IC50 [7],IC50 [8]
"Cc1ccc2cccc(-c3ccc(S(=O)(=O)C4CNC4)c(S(N)(=O)=O)c3-c3nnn[nH]3)c2n1.O=C(O)C(F)(F)F [Example 122, 3-((4-(2-methylquinolin-8-yl)-2-sulfamoyl-3-(1H-tetrazol-5-yl)phenyl)sulfonyl)azetidin-1-ium 2,2,2-trifluoroacetate]",6.25 µM,3.125 µM,3.125 µM,6.25 µM,4.00,324 pM,1.563 µM,155 pM,570 pM
"Cn1ncc2c(-c3ccc(S(=O)(=O)C4CNC4)c(S(N)(=O)=O)c3-c3nnn[nH]3)cccc21.O=C(O)C(F)(F)F [Example 123, 3-((4-(1-methyl-1H-indazol-4-yl)-2-sulfamoyl-3-(1H-tetrazol-5-yl)phenyl)sulfonyl)azetidin-1-ium 2,2,2-trifluoroacetate]",3.125 µM,3.125 µM,1.563 µM,25 µM,15.99,215 pM,1.563 µM,168 pM,1140 pM
"NS(=O)(=O)c1c(S(=O)(=O)C2CNC2)ccc(-c2csc(N3CCOCC3)n2)c1-c1nnn[nH]1.O=C(O)C(F)(F)F [Example 124, 3-((4-(2-morpholinothiazol-4-yl)-2-sulfamoyl-3-(1H-tetrazol-5-yl)phenyl)sulfonyl)azetidin-1-ium 2,2,2-trifluoroacetate]",12.5 µM,6.25 µM,3.125 µM,200 µM,127.96,4950 pM,1.563 µM,1500 pM,6100 pM
"NS(=O)(=O)c1c(S(=O)(=O)C2CNC2)ccc(-c2cccc(C3CCC(=O)N3)c2)c1-c1nnn[nH]1.O=C(O)C(F)(F)F (stereo not drawn) [Example 125, 3-((3′-(5-oxopyrrolidin-2-yl)-3-sulfamoyl-2-(1H-tetrazol-5-yl)-[1,1′-biphenyl]-4-yl)sulfonyl)azetidin-1-ium 2,2,2-trifluoroacetate]",6.25 µM,6.25 µM,6.25 µM,50 µM,16.00,2540 pM,3.125 µM,4020 pM,5230 pM
"Cc1n[nH]c2ccc(-c3ccc(S(=O)(=O)C4CNC4)c(S(N)(=O)=O)c3-c3nnn[nH]3)cc12.O=C(O)C(F)(F)F [Example 126, 3-((4-(3-methyl-1H-indazol-5-yl)-2-sulfamoyl-3-(1H-tetrazol-5-yl)phenyl)sulfonyl)azetidin-1-ium 2,2,2-trifluoroacetate]",6.25 µM,6.25 µM,3.125 µM,12.5 µM,8.00,477 pM,1.563 µM,428 pM,715 pM
"NS(=O)(=O)c1c(S(=O)(=O)C2CNC2)ccc(-c2ccc3cn[nH]c3c2)c1-c1nnn[nH]1.O=C(O)C(F)(F)F [Example 127, 3-((4-(1H-indazol-6-yl)-2-sulfamoyl-3-(1H-tetrazol-5-yl)phenyl)sulfonyl)azetidin-1-ium 2,2,2-trifluoroacetate]",3.125 µM,3.125 µM,0.7813 µM,25 µM,15.99,428 pM,1.563 µM,430 pM,3010 pM
"NS(=O)(=O)c1c(S(=O)(=O)C2CNC2)ccc(-c2cccc3cccnc23)c1-c1nnn[nH]1.O=C(O)C(F)(F)F [Example 128, 3-((4-(quinolin-8-yl)-2-sulfamoyl-3-(1H-tetrazol-5-yl)phenyl)sulfonyl)azetidin-1-ium 2,2,2-trifluoroacetate]",3.125 µM,3.125 µM,1.563 µM,3.125 µM,2.00,314 pM,1.563 µM,134 pM,524 pM
"NS(=O)(=O)c1c(S(=O)(=O)C2CNC2)ccc(-c2cnn3c2CCCC3)c1-c1nnn[nH]1.O=C(O)C(F)(F)F [Example 129, 3-((2-sulfamoyl-4-(4,5,6,7-tetrahydropyrazolo[1,5-a]pyridin-3-yl)-3-(1H-tetrazol-5-yl)phenyl)sulfonyl)azetidin-1-ium 2,2,2-trifluoroacetate]",6.25 µM,6.25 µM,6.25 µM,25 µM,15.99,1240 pM,1.563 µM,647 pM,2630 pM
"Cn1ncc2cccc(-c3ccc(S(=O)(=O)C4CNC4)c(S(N)(=O)=O)c3-c3nnn[nH]3)c21.O=C(O)C(F)(F)F [Example 130, 3-((4-(1-methyl-1H-indazol-7-yl)-2-sulfamoyl-3-(1H-tetrazol-5-yl)phenyl)sulfonyl)azetidin-1-ium 2,2,2-trifluoroacetate]",6.25 µM,6.25 µM,1.563 µM,12.5 µM,4.00,248 pM,3.125 µM,230 pM,1690 pM
"NS(=O)(=O)c1c(S(=O)(=O)C2CNC2)ccc(-c2ccc3ccncc3c2)c1-c1nnn[nH]1.O=C(O)C(F)(F)F [Example 131, 3-((4-(isoquinolin-7-yl)-2-sulfamoyl-3-(1H-tetrazol-5-yl)phenyl)sulfonyl)azetidin-1-ium 2,2,2-trifluoroacetate]",3.125 µM,3.125 µM,0.7813 µM,25 µM,15.99,130 pM,1.563 µM,345 pM,510 pM
"N#CC1(c2ccc(-c3ccc(S(=O)(=O)CCN)c(S(N)(=O)=O)c3-c3nnn[nH]3)cn2)CNC1.O=C(O)C(F)(F)F [Example 132, 2-((4-(6-(3-cyanoazetidin-3-yl)pyridin-3-yl)-2-sulfamoyl-3-(1H-tetrazol-5-yl)phenyl)sulfonyl)ethanaminium 2,2,2-trifluoroacetate]",3.125 µM,1.563 µM,0.7813 µM,6.25 µM,4.00,1550 pM,1.563 µM,3500 pM,1490 pM
"Cc1nnc2ccc(-c3ccc(S(=O)(=O)CCN)c(S(N)(=O)=O)c3-c3nnn[nH]3)cn12.O=C(O)C(F)(F)F [Example 133, 2-((4-(3-methyl-[1,2,4]triazolo[4,3-a]pyridin-6-yl)-2-sulfamoyl-3-(1H-tetrazol-5-yl)phenyl)sulfonyl)ethanaminium 2,2,2-trifluoroacetate]",6.25 µM,6.25 µM,6.25 µM,200 µM,64.00,968 pM,3.125 µM,15600 pM,29400 pM
